Measurements published in patent US20130060543A1, “SYSTEMS AND METHODS FOR REVERSE ENGINEERING MODELS OF BIOLOGICAL NETWORKS” (TRUSTEES OF BOSTON UNIVERSITY, priority 2002, published 2013).

Test system: SOS test network genes
Test: RNA expression changes of SOS test network genes after MMC perturbation (real-time qPCR)
Assay type: cell-based, E. coli

## CO[C@@]12[C@H](COC(N)=O)C3=C(C(=O)C(C)=C(N)C3=O)N1C[C@@H]1N[C@@H]12 [MMC, Mitomycin C]
0.75 μg/ml MMC vs 0.5 μg/ml MMC baseline
  Transcriptional response of all genes in the test network: statistically significant upregulation
0.75 μg/ml MMC vs control cells at 0.5 μg/ml MMC, gene dinI
  Relative RNA expression change xi=[RNAi]pert/[RNAi]cont−1, dinI: 0.334
0.75 μg/ml MMC vs control cells at 0.5 μg/ml MMC, gene lexA
  Relative RNA expression change xi=[RNAi]pert/[RNAi]cont−1, lexA: 0.321
0.75 μg/ml MMC vs control cells at 0.5 μg/ml MMC, gene recA
  Relative RNA expression change xi=[RNAi]pert/[RNAi]cont−1, recA: 0.496
0.75 μg/ml MMC vs control cells at 0.5 μg/ml MMC, gene recF
  Relative RNA expression change xi=[RNAi]pert/[RNAi]cont−1, recF: 0.523
0.75 μg/ml MMC vs control cells at 0.5 μg/ml MMC, gene rpoD
  Relative RNA expression change xi=[RNAi]pert/[RNAi]cont−1, rpoD: 0.327
0.75 μg/ml MMC vs control cells at 0.5 μg/ml MMC, gene rpoH
  Relative RNA expression change xi=[RNAi]pert/[RNAi]cont−1, rpoH: 0.786
0.75 μg/ml MMC vs control cells at 0.5 μg/ml MMC, gene rpoS
  Relative RNA expression change xi=[RNAi]pert/[RNAi]cont−1, rpoS: 0.672
0.75 μg/ml MMC vs control cells at 0.5 μg/ml MMC, gene ssb
  Relative RNA expression change xi=[RNAi]pert/[RNAi]cont−1, ssb: 0.251
0.75 μg/ml MMC vs control cells at 0.5 μg/ml MMC, gene umuDC
  Relative RNA expression change xi=[RNAi]pert/[RNAi]cont−1, umuDC: 0.834
